Data taken from patent US8673353B2, “Tablet having improved elution properties” (Dainippon Sumitomo Pharma Co., Ltd, priority 2008, dated 2014).
Where a name gives a salt, the structure may show the parent alone.

Assay: Particle size by laser diffraction particle size distribution meter (dry method)
Assay type: physicochemical
Conditions: HELOS&RODOS, drug substance used in the Examples
Text: The above-mentioned particle sizes (undersize D50% particle size, undersize D90% particle size etc.) are values measured using a laser diffraction particle size distribution meter (dry method). For example, when a laser diffraction particle size distribution measurement apparatus HELOS & RODOS manufactured by Sympatec GmbH is used, measurement can be performed by setting the measurement range to R3 and the indication basis of the particle amount to volume basis.
The particle size of 3/2 fumarate of compound A used in the following Examples was 0.5-3 μm for undersize D50% and 1-12 μm for undersize D90% particle size, as measured by a dry method using a laser diffraction particle size distribution measurement apparatus, HELOS&RODOS, manufactured by Sympatec GmbH.

undersize D50% particle size: 0.5-3 μm | undersize D90% particle size: 1-12 μm
SMILES: O=C1Nc2ccccc2C(c2ccccc2)N1C1CCN(Cc2cccc(OC(F)(F)F)c2)CC1 (single isomer, unassigned; (+)) [3/2 fumarate of compound A, (+)-3-{1-[3-(trifluoromethoxy)benzyl]piperidin-4-yl}-4-phenyl-3,4-dihydro-2(1H)-quinazolinone]
